Measured values from ChEMBL document CHEMBL1201862, “PubChem BioAssay data set” (2004).
Calls of active or inactive are those of the source.

Columns and labels:
[1] = target: T1, Lytic switch protein BZLF1 (Epstein-Barr virus (strain B95-8) (HHV-4) (Human herpesvirus 4), UniProt P03206); assay: EBV ZTA inhibitors, dose response, counter-screen for EBNA-1 inhibitor project, biochemical, fluorescence polarization, Epstein-Barr virus, 1536-well (AID 2377); design: species or system human gammaherpesvirus 4;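 further: fluorescence polarization of Cy5-labelled ZRE DNA probe bound by purified Zta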
T1 sequence (P03206 whole entry): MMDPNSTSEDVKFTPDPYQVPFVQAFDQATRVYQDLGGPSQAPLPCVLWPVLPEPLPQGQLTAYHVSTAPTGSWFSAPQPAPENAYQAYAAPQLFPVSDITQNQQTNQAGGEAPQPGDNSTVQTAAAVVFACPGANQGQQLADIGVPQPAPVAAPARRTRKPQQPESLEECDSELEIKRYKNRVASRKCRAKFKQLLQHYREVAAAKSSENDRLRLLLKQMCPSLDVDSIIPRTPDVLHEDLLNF

[2] = target: T2, Epstein-Barr nuclear antigen 1 (Epstein-Barr virus (strain B95-8) (HHV-4) (Human herpesvirus 4), UniProt P03211); assay: EBNA-1 inhibitors, dose response, biochemical, fluorescence polarization, 1536-well (AID 2381); design: species or system human gammaherpesvirus 4;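 further: fluorescence polarization of a Cy5 DNA probe bound by EBNA-1 protein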
T2 sequence (P03211 whole entry): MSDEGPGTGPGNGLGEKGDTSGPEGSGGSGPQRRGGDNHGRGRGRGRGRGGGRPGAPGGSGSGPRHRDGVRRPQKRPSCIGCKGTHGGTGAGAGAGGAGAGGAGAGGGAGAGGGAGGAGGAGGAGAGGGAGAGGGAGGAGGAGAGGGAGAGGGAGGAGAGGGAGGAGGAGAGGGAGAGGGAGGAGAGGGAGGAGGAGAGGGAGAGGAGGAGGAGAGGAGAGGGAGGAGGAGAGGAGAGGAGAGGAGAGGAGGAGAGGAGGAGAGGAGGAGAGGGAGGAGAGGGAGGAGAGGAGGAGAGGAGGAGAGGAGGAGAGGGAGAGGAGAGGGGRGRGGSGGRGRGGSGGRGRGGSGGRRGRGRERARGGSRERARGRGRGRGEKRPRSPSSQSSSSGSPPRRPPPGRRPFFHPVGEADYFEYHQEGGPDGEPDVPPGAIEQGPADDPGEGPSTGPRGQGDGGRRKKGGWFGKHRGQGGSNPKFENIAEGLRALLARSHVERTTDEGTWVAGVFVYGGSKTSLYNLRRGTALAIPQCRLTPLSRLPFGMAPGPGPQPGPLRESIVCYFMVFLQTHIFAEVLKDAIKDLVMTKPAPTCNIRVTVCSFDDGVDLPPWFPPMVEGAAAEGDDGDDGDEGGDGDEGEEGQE

[3] = target: T3, Mannose-6-phosphate isomerase (Homo sapiens, UniProt P34949); assay: human PMI inhibitors, high substrate, primary screen, biochemical, fluorescence intensity, high mannose 6-phosphate (AID 1220)
T3 sequence (P34949 whole entry): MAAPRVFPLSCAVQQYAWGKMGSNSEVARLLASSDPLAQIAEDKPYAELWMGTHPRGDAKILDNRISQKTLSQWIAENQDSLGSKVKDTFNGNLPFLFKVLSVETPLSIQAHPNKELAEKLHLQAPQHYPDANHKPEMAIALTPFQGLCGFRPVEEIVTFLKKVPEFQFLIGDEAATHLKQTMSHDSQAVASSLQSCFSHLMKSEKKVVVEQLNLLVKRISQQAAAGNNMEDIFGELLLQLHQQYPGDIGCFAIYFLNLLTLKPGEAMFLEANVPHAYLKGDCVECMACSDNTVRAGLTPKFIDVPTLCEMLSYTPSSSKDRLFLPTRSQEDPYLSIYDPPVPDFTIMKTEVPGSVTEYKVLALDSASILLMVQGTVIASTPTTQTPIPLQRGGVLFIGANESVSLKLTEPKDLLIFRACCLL

[4] = THP-1 cell cytotoxicity, dose response, cytotoxicity control for Vif-APOBEC3G degradation inhibitor project, THP-1 cells (AID 1117359); type: functional; settings: Human immunodeficiency virus 1, THP-1
[5] = target: Mitogen-activated protein kinase 10 (Homo sapiens, UniProt P53779); assay: Dose response biochemical screening assay for inhibitors of c-Jun N-Terminal Kinase 3 (JNK3). [Related pubchem assays: 746 ]
Sequence of Mitogen-activated protein kinase 10 (P53779 whole entry): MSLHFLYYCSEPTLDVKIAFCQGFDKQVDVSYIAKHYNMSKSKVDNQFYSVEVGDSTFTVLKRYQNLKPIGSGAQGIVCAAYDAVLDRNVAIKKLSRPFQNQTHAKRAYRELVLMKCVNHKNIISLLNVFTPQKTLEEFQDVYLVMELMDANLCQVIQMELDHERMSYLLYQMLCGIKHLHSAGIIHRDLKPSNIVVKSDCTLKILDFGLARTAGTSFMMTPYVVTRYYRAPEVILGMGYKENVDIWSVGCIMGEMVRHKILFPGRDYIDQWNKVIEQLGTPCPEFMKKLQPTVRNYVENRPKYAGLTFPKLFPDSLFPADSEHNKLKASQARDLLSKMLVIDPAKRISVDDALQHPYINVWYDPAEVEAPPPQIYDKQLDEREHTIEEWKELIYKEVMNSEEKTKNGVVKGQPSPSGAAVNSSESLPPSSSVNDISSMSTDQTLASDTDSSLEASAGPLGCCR

[6] = target: T4, Rac GTPase-activating protein 1 (Homo sapiens, UniProt Q9H0H5); assay: MgcRacGAP GTPase-activating activity inhibitors, confirmation, biochemical, ADP Hunter fluorescence, primary and confirmatory (AID 624330); type: functional
T4 sequence (Q9H0H5 whole entry): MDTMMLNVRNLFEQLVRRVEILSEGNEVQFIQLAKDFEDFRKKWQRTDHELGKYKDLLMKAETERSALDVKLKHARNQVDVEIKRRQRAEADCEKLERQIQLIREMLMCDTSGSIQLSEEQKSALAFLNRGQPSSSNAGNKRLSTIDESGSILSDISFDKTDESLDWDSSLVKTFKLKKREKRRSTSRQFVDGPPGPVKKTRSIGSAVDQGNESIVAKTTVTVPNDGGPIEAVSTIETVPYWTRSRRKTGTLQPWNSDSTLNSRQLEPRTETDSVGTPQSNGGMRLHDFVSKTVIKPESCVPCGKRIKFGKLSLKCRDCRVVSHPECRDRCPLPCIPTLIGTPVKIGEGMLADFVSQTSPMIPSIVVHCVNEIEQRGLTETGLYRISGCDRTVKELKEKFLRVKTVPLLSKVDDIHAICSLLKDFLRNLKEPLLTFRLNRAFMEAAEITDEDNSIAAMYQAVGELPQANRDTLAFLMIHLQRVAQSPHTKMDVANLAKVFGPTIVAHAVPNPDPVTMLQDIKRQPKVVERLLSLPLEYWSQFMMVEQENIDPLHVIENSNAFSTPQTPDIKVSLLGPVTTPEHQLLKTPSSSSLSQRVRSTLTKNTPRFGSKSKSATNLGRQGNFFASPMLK

[7] = cytotoxicity toward NIH3T3 fibroblasts, dose response, counter-screen, cell-based, ATP luminescence, mouse fibroblasts (AID 2010); type: functional;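 further: cells exposed to compound for about 90 hours before reading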
[8] = target: T5, Short transient receptor potential channel 4 (Mus musculus, UniProt Q9QUQ5); assay: mouse TRPC4 channel activators, dose response, cell-based, HEK293 TRPC4/mu-opioid, Fluo-4 calcium (AID 434937); type: functional
T5 sequence (Q9QUQ5 whole entry): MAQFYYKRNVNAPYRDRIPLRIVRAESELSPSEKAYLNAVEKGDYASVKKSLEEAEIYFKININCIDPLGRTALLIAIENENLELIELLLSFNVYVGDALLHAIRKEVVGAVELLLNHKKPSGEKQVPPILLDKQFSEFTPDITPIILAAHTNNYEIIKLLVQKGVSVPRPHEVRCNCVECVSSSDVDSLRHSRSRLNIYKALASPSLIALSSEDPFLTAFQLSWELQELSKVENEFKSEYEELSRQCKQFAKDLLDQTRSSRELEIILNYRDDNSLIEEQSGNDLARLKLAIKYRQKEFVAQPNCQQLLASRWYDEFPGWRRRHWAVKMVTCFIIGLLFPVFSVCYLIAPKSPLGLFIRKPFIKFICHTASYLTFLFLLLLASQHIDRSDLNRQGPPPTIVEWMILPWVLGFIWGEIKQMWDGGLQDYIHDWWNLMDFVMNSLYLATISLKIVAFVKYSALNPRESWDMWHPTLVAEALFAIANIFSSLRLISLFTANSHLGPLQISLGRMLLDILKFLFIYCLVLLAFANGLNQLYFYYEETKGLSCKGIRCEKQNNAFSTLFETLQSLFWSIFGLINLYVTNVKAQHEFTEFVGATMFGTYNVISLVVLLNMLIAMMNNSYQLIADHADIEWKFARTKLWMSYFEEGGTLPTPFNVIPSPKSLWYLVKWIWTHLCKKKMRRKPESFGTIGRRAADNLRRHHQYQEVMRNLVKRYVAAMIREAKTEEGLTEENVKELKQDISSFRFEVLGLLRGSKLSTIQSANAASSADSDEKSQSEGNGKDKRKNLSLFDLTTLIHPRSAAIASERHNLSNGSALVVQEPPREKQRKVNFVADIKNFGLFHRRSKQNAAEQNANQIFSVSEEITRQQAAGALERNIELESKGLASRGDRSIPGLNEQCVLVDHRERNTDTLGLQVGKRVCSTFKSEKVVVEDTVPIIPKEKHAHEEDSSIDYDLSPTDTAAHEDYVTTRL

[9] = inhibitors of intracellular T. cruzi replication, confirmation, NIH3T3 host cells, beta-gal luminescence (AID 2044); type: functional, cell-based;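 further: intracellular parasites grown in NIH/3T3 mouse fibroblasts as host cells; luminescent beta-galactosidase reporter signal from transgenic T. cruzi replicating inside host cells; inhibitors lower the luminescence signal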
[10] = cells
[11] = target: Luciferin 4-monooxygenase (Photinus pyralis, UniProt P08659); assay: Counter Screen for Luciferase-based Assay Positives. [Related pubchem assays: 620, 618, 411 ]
Sequence of Luciferin 4-monooxygenase (P08659 whole entry): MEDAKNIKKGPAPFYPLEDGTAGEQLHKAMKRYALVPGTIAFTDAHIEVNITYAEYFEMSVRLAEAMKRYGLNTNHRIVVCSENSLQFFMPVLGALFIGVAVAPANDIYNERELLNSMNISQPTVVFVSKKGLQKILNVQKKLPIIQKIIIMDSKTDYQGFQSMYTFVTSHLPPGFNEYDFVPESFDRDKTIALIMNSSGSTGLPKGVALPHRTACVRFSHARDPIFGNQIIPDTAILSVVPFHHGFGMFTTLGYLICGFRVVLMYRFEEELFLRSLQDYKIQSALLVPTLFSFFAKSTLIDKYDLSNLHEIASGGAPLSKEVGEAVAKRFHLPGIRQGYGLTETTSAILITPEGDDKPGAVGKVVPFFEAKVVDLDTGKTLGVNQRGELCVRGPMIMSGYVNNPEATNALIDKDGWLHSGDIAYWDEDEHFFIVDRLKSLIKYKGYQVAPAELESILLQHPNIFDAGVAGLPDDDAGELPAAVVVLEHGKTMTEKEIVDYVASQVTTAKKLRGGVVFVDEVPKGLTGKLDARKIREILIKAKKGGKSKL

[12] = system: HT-1080; assay: cytotoxicity in HT1080 fibrosarcoma cells, cell-based, fluorescence readout (AID 620); type: functional; settings: Homo sapiens
[13] = HepG2 cell cytotoxicity, dose response, cytotoxicity control, ATP luminescence, cherry-pick, activator set 2 (AID 1053143); type: functional, cell-based

**Q.** What does the source list for O=C(Nc1ccccc1F)c1cc2c(s1)-c1ccccc1S(=O)(=O)C2?
**A.** IC50 [1]: 93.7 µM (not active); IC50 [2]: 15.9 µM (not active)

**Q.** Which IC50 [3] does the source give for O=[N+]([O-])c1ccc2c(c1NCCO)=NC1(CCCCC1)[N+]=2[O-] here?
**A.** > 50 µM (not active)

**Q.** For C=CCN1C(=O)c2ccc(C(=O)N3CCN(c4ccccc4OC)CC3)cc2C1=O, which CC50 [4] is on record?
**A.** > 40 µM (active)

**Q.** Which IC50 [5] does the source give for CCOC(=O)c1ccc(Cn2cnc3ccccc3c2=O)cc1 here?
**A.** 12.3 µM (not active)

**Q.** Which results are given for CCOC(=O)c1sc(/N=C/c2c(O)ccc3ccccc23)cc1C?
**A.** IC50 [3]: > 50 µM (not active); IC50 [6]: 139 µM (active)

**Q.** Which CC50 [4] does the source give for COc1ccc(/C=C/CN2CCN(Cc3ccccc3)C(CCO)C2)cc1 (stereo not drawn) here?
**A.** > 40 µM (active)

**Q.** What does the source list for COc1ccc(-c2cn3c(C)c(C(=O)NCc4ccc5c(c4)OCO5)sc3n2)cc1?
**A.** IC50 [1]: > 111 µM (not active); IC50 [2]: 4.84 µM (active)

**Q.** For CN(CCOc1ccc(Br)cc1)CC(O)c1ccccc1 (stereo not drawn), which EC50 [7] is on record?
**A.** > 60 µM (not active)

**Q.** And the EC50 [8]?
**A.** 1.33 µM (active)

**Q.** And the EC50 [9]?
**A.** < 0.1 µM (active)

**Q.** What about the EC50 [10] of the same compound?
**A.** 0.269 µM (active)

**Q.** What does the source list for Cc1ccc(-n2nc3ccc(N)cc3n2)cc1?
**A.** EC50 [11]: > 100 µM (not active); EC50 [12]: > 50 µM (not active)

**Q.** Which results are given for Oc1cc(-c2ccccc2)nc2nc3ccccc3n12?
**A.** AC50 [13]: 26 µM (active); IC50 [5]: > 31 µM (not active)
